# Measured values: patent US7541374B2, “Malononitrile compounds and use thereof” (Sumitomo Chemical Company, Limited, priority 2004, dated 2009)
# What was measured:
# Type in all cases: in vivo
# Culex pipiens pallens = assay: Test Example 5: larvae in treated water, Culex pipiens pallens; details: 24 h; active ingredient concentration 3.5 ppm in water; twenty last-instar larvae of Culex pipiens pallens; after one day; read-out: rate of dead pests
# Description: The formulation obtained according to Formulation Example 5 using the compound of the present invention (1), (2), (3), (4), (5), (6), (7), (8), (9), (10), (11), (12), (13), (14), (15), (16), (17), (18), (19), (20), (21), (22), (23), (25), (27), (28), (29), […], (31), (32), (33), (34), (35), (36), (37), (38), (39), (41), (44), (45), (46), (47) and (48) respectively, was diluted with water so that the active ingredient concentration came to 500 ppm to prepare a pesticidal solution for test.
# 0.7 ml of above pesticidal solution for test was added to 100 ml of ion exchanged water (active ingredient concentration: 3.5 ppm). Twenty last-instar larvae of Culex pipiens pallens were set free in the solution. After one day, the number of surviving and dead Culex pipiens pallens was examined and the rate of dead pests was calculated.
# Blattella germanica = assay: Test Example 4: treated filter paper with sucrose bait, Blattella germanica; details: 144 h; 500 ppm, 0.7 ml on filter paper; two male Blattella germanica imagoes; after 6 days; read-out: rate of dead pests
# Description: (§1) The formulation obtained according to Formulation Example 5 using the compound of the present invention (2), (3), (4), (6), (7), (8), (9), (11), (12), (13), (15), (16), (18), (19), (20), (21), (22), (27), (28), (29), (30), (31), (32), (33), (34), (35), (36), (37), (38), (43) and (43) respectively, was diluted with water so that the active ingredient concentration came to 500 ppm to prepare a pesticidal solution for test.
# (§2) On the bottom of a polyethylene cup having a diameter of 5.5 cm, a filter paper having the same diameter was laid, and 0.7 ml of the above pesticidal solution for test was added dropwise on the filter paper, followed by putting 30 mg of sucrose on it uniformly as a bait. Two male Blattella germanica imagoes were set free in the polyethylene cup and covered it with a lid. After 6 days, the number of surviving and dead Blattella germanica was examined and the rate of dead pests was calculated.
# Musca domestica = assay: Test Example 3: treated filter paper with sucrose bait, Musca domestica; details: 500 ppm, 0.7 ml on filter paper; ten female Musca domestica imagoes; after 24 hours; read-out: rate of dead pests
# Description: as §1, with “(8),” for “(8), (9),”, “(16),” for “(16), (18),”, “(22),” for “(22), (27),”, “(34),” for “(34), (35),”, “(38)” for “(38), (43)”, “(39)” for “(43)”
# as §2, with “Ten female Musca domestica” for “Two male Blattella germanica”, “24 hours,” for “6 days,”, “Musca domestica” for “Blattella germanica”
Structure (SMILES),pest or weed control at 3.5 ppm (Culex pipiens pallens) [%],pest or weed control at 500 ppm (Blattella germanica) [%],pest or weed control at 500 ppm (Musca domestica) [%]
"CC(C)(C)c1nn(CC(C#N)(C#N)CCC(F)(F)F)cc1Br [compound of the present invention (12), [(4-bromo-3-t-butyl-1H-pyrazole-1-yl)methyl](3,3,3-trifluoropropyl) malononitrile]",≥ 95,100,≥ 90
"CC(C)(C)c1nn(CC(C#N)(C#N)CCC(F)(F)F)cc1Cl [compound of the present invention (13), [(4-chloro-3-t-butyl-1H-pyrazole-1-yl)methyl](3,3,3-trifluoropropyl) malononitrile]",≥ 95,100,≥ 90
"N#CC(C#N)(CCC(F)(F)F)Cn1cc(Br)c(C(F)(F)F)n1 [compound of the present invention (15), [(4-bromo-3-trifluoromethyl-1H-pyrazole-1-yl)methyl](3,3,3-trifluoropropyl) malononitrile]",≥ 95,100,≥ 90
C=CCC(C#N)(C#N)Cn1cc(Br)c(C(F)(F)F)n1 [compound of the present invention (16)],≥ 95,100,≥ 90
"N#CC(C#N)(CCC(F)(F)F)Cn1cc(Cl)cn1 [compound of the present invention (19), [(4-chloro-1H-pyrazole-1-yl)methyl](3,3,3-trifluoropropyl) malononitrile]",≥ 95,100,≥ 90
"C=CCC(C#N)(C#N)Cn1cc(Cl)cn1 [compound of the present invention (20), allyl [(4-chloro-1H-pyrazole-1-yl)methyl]malononitrile]",≥ 95,100,≥ 90
"N#CC(C#N)(CCC(F)(F)F)Cn1cc(Br)cn1 [compound of the present invention (21), [(4-bromo-1H-pyrazole-1-yl)methyl](3,3,3-trifluoropropyl) malononitrile]",≥ 95,100,≥ 90
"N#CC(C#N)(CCC(F)(F)F)Cn1cc(C(F)(F)F)cn1 [compound of the present invention (22), {[4-(trifluoromethyl)-1H-pyrazole-1-yl]methyl}(3,3,3-trifluoropropyl) malononitrile]",≥ 95,100,≥ 90
"CC(C)c1ncn(CC(C#N)(C#N)CCC(F)(F)F)n1 [compound of the present invention (28), [(3-i-propyl-1H-1,2,4-triazole-1-yl)methyl](3,3,3-trifluoropropyl) malononitrile]",≥ 95,100,≥ 90
"CC(C)(C)c1ncn(CC(C#N)(C#N)CCC(F)(F)F)n1 [compound of the present invention (29), [(3-t-butyl-1H-1,2,4-triazole-1-yl)methyl](3,3,3-trifluoropropyl) malononitrile]",≥ 95,100,≥ 90
"C=CCC(C#N)(C#N)Cn1cnc(C(C)(C)C)n1 [compound of the present invention (31), allyl [(3-t-butyl-1H-1,2,4-triazole-1-yl)methyl]malononitrile]",≥ 95,100,≥ 90
"CC(C)(C)c1nc(Br)n(CC(C#N)(C#N)CCC(F)(F)F)n1 [compound of the present invention (32), [(5-bromo-3-t-butyl-1H-1,2,4-triazole 1-yl)methyl](3,3,3-trifluoropropyl)malononitrile]",≥ 95,100,≥ 90
"N#CC(C#N)(CCC(F)(F)F)Cn1cnc(C(F)(F)F)n1 [compound of the present invention (33), {[3-(trifluoromethyl)-1H-1,2,4-triazole-1-yl]methyl}(3,3,3-trifluoropropyl)malononitrile]",≥ 95,100,≥ 90
"N#CC(C#N)(CCC(F)(F)F)Cn1cnc(C(F)(F)C(F)(F)F)n1 [compound of the present invention (34), {[3-(pentafluoroethyl)-1H-1,2,4-triazole 1-yl]methyl}(3,3,3-trifluoropropyl) malononitrile]",≥ 95,100,≥ 90
"N#CC(C#N)(CCC(F)(F)F)Cn1ccc(C(F)(F)C(F)(F)F)n1 [compound of the present invention (36), {[3-(pentafluoroethyl)-1H-pyrazole-1-yl]methyl}(3,3,3-trifluoropropyl)malononitrile]",≥ 95,100,≥ 90
"N#CC(C#N)(CCC(F)(F)F)Cn1cc(Br)c(C(F)(F)C(F)(F)F)n1 [compound of the present invention (37), [(4-bromo-3-(pentafluoroethyl)-1H-pyrazole-1-yl)methyl](3,3,3-trifluoropropyl) malononitrile]",≥ 95,100,≥ 90
"N#CC(C#N)(CCC(F)(F)F)Cn1cnc(C(F)(F)F)c1 [compound of the present invention (38), {[4-(trifluoromethyl)-1H-imidazole-1-yl]methyl}(3,3,3-trifluoropropyl) malononitrile]",≥ 95,100,≥ 90
